Measurements as given in patent US20220136068A1, “METHODS OF DETECTING AND TREATING VENETOCLAX-RESISTANT ACUTE MYELOID LEUKEMIA” (The Regents of the University of Colorado, A Body Corporate, priority 2019, published 2022).

How the values were obtained:
prim-AML ROS-low LSCs = assay: In vitro viability of sorted ROS-low LSCs from primitive AML; type: cell-based, human; conditions: in vitro treatment
Method: (§1) FIG. 2 is a series of charts showing viability of sorted ROSlow LSCs from mono-AML (n=5) and prim-AML (n=7) after 24 hours in vitro treatment with venetoclax alone or in combination with a fixed dose of 1.5 μM azacitidine. Each data point was expressed as mean±SD of technical triplicates. All viability data were normalized to untreated control.
(§2) To understand if the lack of response by monocytic AML to VEN+AZA is driven by intrinsic mechanisms, VEN+AZA sensitivity was directly evaluated in vitro, where protection from extrinsic factors such as the microenvironment is minimal. For these experiments, a second cohort of AML specimens with sufficient material to allow for more robust in vitro experimentation was used (herein referred to as Research Cohort 2). Using the surface expression profile of CD117, CD11b, CD68 and CD64, the primitive or monocytic compartment was isolated for analysis (herein referred to as prim-AML or mono-AML, respectively). Prim-AML has the phenotype of CD117+/CD11b−/CD68−/CD64− and mono-AML is predominantly CD117−/CD11b+/CD68+/CD64+. The in vitro drug sensitivity of these populations is shown in FIG. 2 and closely correlates with relative responses observed for the Clinical Cohort.
(§3) The relative sensitivity of LSCs derived from primitive versus monocytic AML specimens was analyzed. […]

mono-AML ROS-low LSCs = assay: In vitro viability / cell death of sorted ROS-low LSCs from monocytic AML; type: cell-based, human; conditions: 24 hours in vitro treatment; FIG. 2, FIG. 3
Method: as §1
FIG. 3 is a series of bar graphs viability of three mono-AMLs from the Research Cohort 2 after 24 hours in vitro treatment with various single or combinations drugs.
as §2, with “The in vitro drug sensitivity of these populations is shown in FIG. 2 and closely correlates with relative responses observed for the Clinical Cohort.” left out
as §3

Structure (SMILES)	sensitivity/resistance (viability) of prim-AML ROS-low LSCs (prim-AML ROS-low LSCs)	sensitivity/resistance (viability) of mono-AML ROS-low LSCs (mono-AML ROS-low LSCs)
Nc1ncn([C@@H]2O[C@H](CO)[C@@H](O)[C@H]2O)c(=O)n1 [AZA, azacitidine]	sensitive	
COCCn1c2c([n+](Cc3cnccn3)c1C)C(=O)c1ccccc1C2=O [YM155]	highly resistant	sensitive
